Source: ChEMBL document CHEMBL1135194, “Inhibition of Src kinase activity by 4-anilino-7-thienyl-3-quinolinecarbonitriles” (Bioorg Med Chem Lett, 2002)
pIC50: −log10 of the molar value.

Biological target: Proto-oncogene tyrosine-protein kinase Src (Homo sapiens, UniProt P12931)
Experiment: Inhibition of Src kinase in enzymatic assay

Proto-oncogene tyrosine-protein kinase Src, sequence (P12931 2-536 limits assumed): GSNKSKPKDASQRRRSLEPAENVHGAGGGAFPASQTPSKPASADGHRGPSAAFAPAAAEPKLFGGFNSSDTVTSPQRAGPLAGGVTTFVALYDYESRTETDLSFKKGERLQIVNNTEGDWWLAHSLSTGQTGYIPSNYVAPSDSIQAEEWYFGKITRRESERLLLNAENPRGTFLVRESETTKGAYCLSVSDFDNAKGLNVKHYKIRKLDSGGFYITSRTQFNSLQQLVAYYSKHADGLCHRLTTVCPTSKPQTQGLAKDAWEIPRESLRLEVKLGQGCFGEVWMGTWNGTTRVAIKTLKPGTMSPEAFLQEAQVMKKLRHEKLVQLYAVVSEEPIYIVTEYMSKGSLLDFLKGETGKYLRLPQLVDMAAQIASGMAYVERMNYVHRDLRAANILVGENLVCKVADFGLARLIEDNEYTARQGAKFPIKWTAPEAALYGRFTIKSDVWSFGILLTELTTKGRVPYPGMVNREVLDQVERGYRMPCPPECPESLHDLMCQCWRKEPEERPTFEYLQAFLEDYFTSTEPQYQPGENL

Compound	pIC50
COc1cc(Nc2c(C#N)cnc3cc(-c4ccsc4CN4CCOCC4)ccc23)c(Cl)cc1Cl	6.36
COc1cc(Nc2c(C#N)cnc3cc(-c4csc(CN5CCC(O)CC5)c4)ccc23)c(Cl)cc1Cl	8.85
COc1cc(Nc2c(C#N)cnc3cc(-c4cc(CN5CCOCC5)cs4)ccc23)c(Cl)cc1Cl	8.24
COc1cc(Nc2c(C#N)cnc3ccc(-c4csc(CN5CCOCC5)c4)cc23)c(Cl)cc1Cl	6.55
COc1cc(Nc2c(C#N)cnc3cc(-c4cscc4CN4CCOCC4)ccc23)c(Cl)cc1Cl	6.62

Next, values leading:

pIC50	Compound
8.38	COc1cc(Nc2c(C#N)cnc3cc(-c4cc(CN5CCCCC5)cs4)ccc23)c(Cl)cc1Cl
8.57	COc1cc(Nc2c(C#N)cnc3cc(-c4csc(CN5CCOCC5)c4)ccc23)c(Cl)cc1Cl
8.60	COc1cc(Nc2c(C#N)cnc3cc(-c4ccc(CN5CCOCC5)s4)ccc23)c(Cl)cc1Cl
